Experimental data: patent publication US20240391931A1 (Bristol-Myers Squibb Company, priority 2021, published 2024)

Key:
EGFR WT = target: T1, EGFR WT (Homo sapiens, UniProt P00533); assay: Enzymatic assay EGFR WT (method c); type: biochemical; settings: [EGFR WT]=2 nM, [ATP]=1 mM, [Peptide 22]=1 μM
T1 construct: purchased Thermo Fisher, Carlsbad, CA ERBB1 PR7295B
Procedure, shortened: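 Initial rates over 0–3600 s, read as substrate-to-product conversion by capillary electrophoresis, were converted to percent inhibition and fitted with a variable-slope curve to give IC50. Conditions: EGFR WT 2 nM with 1 mM ATP; HER2 YVMA 5 nM or HER2 WT 12.5 nM, each with 25 μM ATP. All used 1 μM Peptide 22 in pH 7.5 HEPES/Mn/Mg buffer.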

[1] = target: T2, HER2 wildtype (WT) protein (Homo sapiens, UniProt P04626); assay: HER2 signaling (pHER2 Tyr1248/total HER2 MSD) in BT474 cells; type: cell-based; settings: 1.5 hr compound, 1% FBS
T2 construct: BT474 and N87 cell lines which endogenously overexpress the HER2 wildtype (WT) protein; endogenous in cells; host or cells: BT474, N87
Procedure, shortened: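 BT474, N87 (HER2 WT) and NCI-H1781 (HER2 G776delinsVC) cells were treated for 1.5 h at 37° C in 1% FBS medium with compound at 0.0005–1.1 μM. pHER2 Tyr1248 was measured by MSD on whole-cell lysates and normalized to total HER2 as % DMSO. EC50 came from a variable-slope sigmoidal fit.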

T1 sequence (P00533 25-1210): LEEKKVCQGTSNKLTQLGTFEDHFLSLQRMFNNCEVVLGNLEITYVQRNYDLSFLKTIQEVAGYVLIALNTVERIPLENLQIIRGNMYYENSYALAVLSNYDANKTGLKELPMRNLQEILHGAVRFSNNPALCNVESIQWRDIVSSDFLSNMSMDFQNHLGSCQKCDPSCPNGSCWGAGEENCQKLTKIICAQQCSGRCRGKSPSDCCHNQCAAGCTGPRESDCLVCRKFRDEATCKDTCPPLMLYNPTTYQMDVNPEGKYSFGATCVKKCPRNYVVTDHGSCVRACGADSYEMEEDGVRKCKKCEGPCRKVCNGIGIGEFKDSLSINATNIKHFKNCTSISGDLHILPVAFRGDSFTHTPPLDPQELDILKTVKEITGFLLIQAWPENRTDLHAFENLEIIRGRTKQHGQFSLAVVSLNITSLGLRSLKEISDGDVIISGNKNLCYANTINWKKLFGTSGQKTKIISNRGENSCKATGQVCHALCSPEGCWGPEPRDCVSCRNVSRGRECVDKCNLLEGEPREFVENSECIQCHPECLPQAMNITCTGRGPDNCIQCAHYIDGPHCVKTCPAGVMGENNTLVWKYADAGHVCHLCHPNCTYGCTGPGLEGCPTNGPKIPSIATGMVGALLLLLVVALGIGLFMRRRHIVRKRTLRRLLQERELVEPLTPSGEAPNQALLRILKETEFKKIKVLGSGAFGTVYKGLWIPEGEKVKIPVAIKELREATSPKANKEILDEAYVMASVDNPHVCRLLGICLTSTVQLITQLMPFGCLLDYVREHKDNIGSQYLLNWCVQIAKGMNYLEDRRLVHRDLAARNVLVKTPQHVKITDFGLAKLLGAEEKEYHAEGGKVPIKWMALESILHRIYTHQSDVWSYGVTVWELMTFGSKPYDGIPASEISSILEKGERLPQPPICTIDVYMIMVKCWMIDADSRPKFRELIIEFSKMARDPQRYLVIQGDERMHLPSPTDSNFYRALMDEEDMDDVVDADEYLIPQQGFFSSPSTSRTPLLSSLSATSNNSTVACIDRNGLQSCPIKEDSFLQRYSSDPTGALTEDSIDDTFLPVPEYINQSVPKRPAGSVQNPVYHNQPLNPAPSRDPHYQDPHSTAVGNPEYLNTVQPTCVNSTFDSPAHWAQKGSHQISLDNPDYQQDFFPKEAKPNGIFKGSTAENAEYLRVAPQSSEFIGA
T2 sequence (P04626 23-1255): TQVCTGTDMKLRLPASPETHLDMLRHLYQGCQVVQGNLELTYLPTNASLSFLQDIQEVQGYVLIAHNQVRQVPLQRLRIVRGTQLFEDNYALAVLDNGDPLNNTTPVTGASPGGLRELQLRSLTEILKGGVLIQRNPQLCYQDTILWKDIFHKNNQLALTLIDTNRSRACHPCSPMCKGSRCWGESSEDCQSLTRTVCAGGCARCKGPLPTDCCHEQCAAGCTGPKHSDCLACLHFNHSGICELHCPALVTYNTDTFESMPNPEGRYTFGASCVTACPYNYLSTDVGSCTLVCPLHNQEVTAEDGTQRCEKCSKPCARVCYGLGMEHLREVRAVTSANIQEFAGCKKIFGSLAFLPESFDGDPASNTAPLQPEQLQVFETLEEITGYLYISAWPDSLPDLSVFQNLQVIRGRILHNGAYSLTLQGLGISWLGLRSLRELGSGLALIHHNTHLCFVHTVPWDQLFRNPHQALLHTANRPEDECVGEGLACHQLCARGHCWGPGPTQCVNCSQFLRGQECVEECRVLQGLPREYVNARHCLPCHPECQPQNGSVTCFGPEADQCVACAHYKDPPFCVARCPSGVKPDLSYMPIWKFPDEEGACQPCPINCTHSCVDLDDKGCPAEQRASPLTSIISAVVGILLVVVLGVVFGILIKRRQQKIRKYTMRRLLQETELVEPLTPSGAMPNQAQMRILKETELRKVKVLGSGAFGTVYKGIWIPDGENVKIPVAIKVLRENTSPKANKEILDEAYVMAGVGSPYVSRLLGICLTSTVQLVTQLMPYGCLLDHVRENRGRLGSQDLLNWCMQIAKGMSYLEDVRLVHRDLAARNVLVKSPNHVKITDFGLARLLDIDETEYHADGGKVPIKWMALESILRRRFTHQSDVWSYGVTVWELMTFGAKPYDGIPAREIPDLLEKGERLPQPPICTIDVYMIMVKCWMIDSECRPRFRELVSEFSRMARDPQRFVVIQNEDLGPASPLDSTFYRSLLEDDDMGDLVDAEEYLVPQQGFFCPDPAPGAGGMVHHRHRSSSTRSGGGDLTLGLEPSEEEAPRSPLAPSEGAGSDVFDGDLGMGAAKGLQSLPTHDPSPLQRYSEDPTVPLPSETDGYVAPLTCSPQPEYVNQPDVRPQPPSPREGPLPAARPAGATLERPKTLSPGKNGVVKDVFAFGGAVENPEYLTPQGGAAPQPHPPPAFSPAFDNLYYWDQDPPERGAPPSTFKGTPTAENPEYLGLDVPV

## Cc1ccc(Oc2ccc(Nc3ncnc4sc5c(c34)CCN(C(=O)/C=C/CNC3CCC(C(=O)N(C)C)CC3)C5)cc2C)cn1 (stereo not shown) [Compound 71]
EGFR WT
  IC50: 1000 to 10000 nM
[1]
  EC50: < 100 nM

## Cc1ccc(Oc2ccc(Nc3ncnc4sc5c(c34)CCN(C(=O)/C=C/CNC34CCC(C#N)(CC3)CC4)C5)cc2C)cn1 [Compound 72]
EGFR WT
  IC50: 1000 to 10000 nM
[1]
  EC50: < 100 nM

## Cc1ccc(Oc2ccc(Nc3ncnc4sc5c(c34)CCN(C(=O)/C=C/CN[C@H]3CCC[C@H](O)C3)C5)cc2C)cn1 [Compound 73]
EGFR WT
  IC50: 1000 to 10000 nM
[1]
  EC50: < 100 nM

## Cc1ccc(Oc2ccc(Nc3ncnc4sc5c(c34)CCN(C(=O)/C=C/CN3CCC(O)C3)C5)cc2C)cn1 (stereo not shown) [Compound 74]
EGFR WT
  IC50: 1000 to 10000 nM
[1]
  EC50: < 100 nM

## Cc1ccc(Oc2ccc(Nc3ncnc4sc5c(c34)CCN(C(=O)/C=C/CN[C@@H](C)CO)C5)cc2C)cn1 [Compound 75]
EGFR WT
  IC50: 1000 to 10000 nM
[1]
  EC50: < 100 nM

## Cc1ccc(Oc2ccc(Nc3ncnc4sc5c(c34)CCN(C(=O)/C=C/CN3CC4CC4C3)C5)cc2C)cn1 (stereo not shown) [Compound 76]
EGFR WT
  IC50: 1000 to 10000 nM
[1]
  EC50: < 100 nM

## Cc1cc(Nc2ncnc3sc4c(c23)CCN(C(=O)/C=C/CN2CC3CC2CO3)C4)ccc1Oc1ccc2ncnn2c1 (stereo not shown) [Compound 77]
EGFR WT
  IC50: > 10000 nM
[1]
  EC50: < 100 nM

## Cc1cc(Nc2ncnc3sc4c(c23)CCN(C(=O)/C=C/CN(C)C(C)(C)C)C4)ccc1Oc1ccc2ncnn2c1 [Compound 80]
EGFR WT
  IC50: > 10000 nM
[1]
  EC50: < 100 nM

## Cc1cc(Nc2ncnc3sc4c(c23)CCN(C(=O)/C=C/CN2CC3C(CO)C3C2)C4)ccc1Oc1ccc2ncnn2c1 (stereo not shown) [Compound 81]
EGFR WT
  IC50: > 10000 nM
[1]
  EC50: < 100 nM

## Cc1cc(Nc2ncnc3sc4c(c23)CCN(C(=O)/C=C/CN2CC3CC(C3)C2)C4)ccc1Oc1ccc2ncnn2c1 [Compound 82]
EGFR WT
  IC50: > 10000 nM
[1]
  EC50: < 100 nM

## Cc1cc(Nc2ncnc3sc4c(c23)CCN(C(=O)/C=C/CN2CC(C)OC(C)C2C)C4)ccc1Oc1ccc2ncnn2c1 (stereo not shown) [Compound 83]
EGFR WT
  IC50: > 10000 nM
[1]
  EC50: < 100 nM

## Cc1cc(Nc2ncnc3sc4c(c23)CCN(C(=O)/C=C/CN2CC(C)(C)OC(C)(C)C2)C4)ccc1Oc1ccc2ncnn2c1 [Compound 84]
EGFR WT
  IC50: > 10000 nM
[1]
  EC50: < 100 nM

## O=C(/C=C/CN1CC2CC(C2)C1)N1CCc2c(sc3ncnc(Nc4ccc(Oc5ccc6ncnn6c5)c(Cl)c4)c23)C1 [Compound 85]
EGFR WT
  IC50: 1000 to 10000 nM
[1]
  EC50: < 100 nM

## C=C(CN1CCc2c(sc3ncnc(Nc4ccc(Oc5ccc(C)nc5)c(C)c4)c23)C1)C(=O)OCC [Compound 86, Ethyl 2-((4-((3-methyl-4-((6-methylpyridin-3-yl)oxy)phenyl)amino)-5,8-dihydropyrido[4′,3′:4,5]thieno[2,3-d]pyrimidin-7(6H)-yl)methyl)acrylate]
EGFR WT
  IC50: > 10000 nM
[1]
  EC50: 100 to 350 nM

## O=C(/C=C/CN1CC2CC1CO2)N1CCc2c(sc3ncnc(Nc4ccc(Oc5ccc6ncnn6c5)c(Cl)c4)c23)C1 (stereo not shown) [Compound 87]
EGFR WT
  IC50: 1000 to 10000 nM
[1]
  EC50: < 100 nM

## O=C(/C=C/CN1CC2CCC(C2)C1)N1CCc2c(sc3ncnc(Nc4ccc(Oc5ccc6ncnn6c5)c(Cl)c4)c23)C1 [Compound 88]
EGFR WT
  IC50: > 10000 nM
[1]
  EC50: < 100 nM

## CN(C/C=C/C(=O)N1CCc2c(sc3ncnc(Nc4ccc(Oc5ccc6ncnn6c5)c(Cl)c4)c23)C1)C(C)(C)C [Compound 91]
EGFR WT
  IC50: > 10000 nM
[1]
  EC50: < 100 nM

## O=C(/C=C/CN1CC2C(CO)C2C1)N1CCc2c(sc3ncnc(Nc4ccc(Oc5ccc6ncnn6c5)c(Cl)c4)c23)C1 (stereo not shown) [Compound 92]
EGFR WT
  IC50: > 10000 nM
[1]
  EC50: < 100 nM

## C=CC(=O)N1CCc2[nH]c3ncnc(Nc4ccc(Oc5ccc(C)nc5)c(C)c4)c3c2C1 [Compound 94, 1-(4-((3-methyl-4-((6-methylpyridin-3-yl)oxy)phenyl)amino)-7,8-dihydro-5H-pyrido[3′,4′:4,5]pyrrolo[2,3-d]pyrimidin-6(9H)-yl)prop-2-en-1-one]
EGFR WT
  IC50: > 10000 nM
[1]
  EC50: < 100 nM

## COc1ccc(Oc2ccc(Nc3ncnc4sc5c(c34)CCN(C(=O)/C=C/CN(C)C)C5)cc2C)cn1 [Compound 95, (E)-4-(Dimethylamino)-1-(4-((4-((6-methoxypyridin-3-yl)oxy)-3-methylphenyl)amino)-5,6-dihydropyrido[4′,3′:4,5]thieno[2,3-d]pyrimidin-7(8H)-yl)but-2-en-1-one]
EGFR WT
  IC50: > 10000 nM
[1]
  EC50: < 100 nM

## CCOC/C=C/C(=O)N1CCc2c(sc3ncnc(Nc4ccc(Oc5ccc(C)nc5)c(C)c4)c23)C1 [Compound 96, (E)-4-ethoxy-1-(4-((3-methyl-4-((6-methylpyridin-3-yl)oxy)phenyl)amino)-5,8-dihydropyrido[4′,3′:4,5]thieno[2,3-d]pyrimidin-7(6H)-yl)but-2-en-1-one]
EGFR WT
  IC50: > 10000 nM
[1]
  EC50: < 100 nM

## Cc1ccc(Oc2ccc(Nc3ncnc4[nH]c5c(c34)CN(C(=O)/C=C/CN(C)C)CC5)cc2C)cn1 [Compound 97, (E)-4-(dimethylamino)-1-(4-((3-methyl-4-((6-methylpyridin-3-yl)oxy)phenyl)amino)-5,7,8,9-tetrahydro-6H-pyrido[3′,4′:4,5]pyrrolo[2,3-d]pyrimidin-6-yl)but-2-en-1-one]
EGFR WT
  IC50: > 10000 nM
[1]
  EC50: < 100 nM

## Cc1ccc(Oc2ccc(Nc3ncnc4sc5c(c34)C(C)CN(C(=O)/C=C/CN(C)C)C5)cc2C)cn1 (stereo not shown) [Compound 98, (E)-4-(dimethylamino)-1-(5-methyl-4-((3-methyl-4-((6-methylpyridin-3-yl)oxy)phenyl)amino)-5,8-dihydropyrido[4′,3′:4,5]thieno[2,3-d]pyrimidin-7(6H)-yl)but-2-en-1-one]
EGFR WT
  IC50: > 10000 nM
[1]
  EC50: < 100 nM

## Cc1ccc(Oc2ccc(Nc3ncnc4sc5c(c34)CN(C(=O)/C=C/CN(C)C)C5)cc2C)cn1 [Compound 99, (E)-4-(dimethylamino)-1-(4-((3-methyl-4-((6-methylpyridin-3-yl)oxy)phenyl)amino)-5,7-dihydro-6H-pyrrolo[3′,4′:4,5]thieno[2,3-d]pyrimidin-6-yl)but-2-en-1-one]
EGFR WT
  IC50: > 10000 nM
[1]
  EC50: < 100 nM

## Cc1ccc(Oc2ccc(Nc3ncnc4sc5c(c34)CCN(C(=O)/C=C/CN(C)C)CC5)cc2C)cn1 [Compound 100, (E)-4-(dimethylamino)-1-(4-((3-methyl-4-((6-methylpyridin-3-yl)oxy)phenyl)amino)-8,9-dihydro-5H-pyrimido[5′,4′:4,5]thieno[2,3-d]azepin-7(6H)-yl)but-2-en-1-one]
EGFR WT
  IC50: > 10000 nM
[1]
  EC50: < 100 nM

## Cc1ccc(Oc2ccc(Nc3ncnc4sc5c(c34)CCCN(C(=O)/C=C/CN(C)C)C5)cc2C)cn1 [Compound 101, (E)-4-(Dimethylamino)-1-(4-((3-methyl-4-((6-methylpyridin-3-yl)oxy)phenyl)amino)-6,7-dihydro-5H-pyrimido[5′,4′:4,5]thieno[2,3-c]azepin-8(9H)-yl)but-2-en-1-one]
EGFR WT
  IC50: > 10000 nM
[1]
  EC50: < 100 nM

## C=CC(=O)N1CCc2[nH]c3ncnc(Nc4ccc(Oc5ccc6ncnn6c5)c(C)c4)c3c2C1 [Compound 102, 1-(4-((4-([1,2,4]triazolo[1,5-a]pyridin-6-yloxy)-3-methylphenyl)amino)-5,7,8,9-tetrahydro-6H-pyrido[3′,4′:4,5]pyrrolo[2,3-d]pyrimidin-6-yl)prop-2-en-1-one]
EGFR WT
  IC50: > 10000 nM
[1]
  EC50: < 100 nM

## Cc1cc(Nc2ncnc3sc4c(c23)CN(C(=O)/C=C/CN(C)C)CC4)ccc1Oc1ccc2ncnn2c1 [Compound 103, (E)-1-(4-((4-([1,2,4]triazolo[1,5-a]pyridin-6-yloxy)-3-methylphenyl)amino)-7,8-dihydropyrido[3′,4′:4,5]thieno[2,3-d]pyrimidin-6(5H)-yl)-4-(dimethylamino)but-2-en-1-one]
EGFR WT
  IC50: > 10000 nM
[1]
  EC50: < 100 nM

## Cc1cc(Nc2ncnc3sc4c(c23)CCN(C(=O)/C=C/CN(C)C)C4)ccc1Oc1ccc2nonc2c1 [Compound 104, (E)-1-(4-((4-(Benzo[c][1,2,5]oxadiazol-5-yloxy)-3-methylphenyl)amino)-5,6-dihydropyrido[4′,3′:4,5]thieno[2,3-d]pyrimidin-7(8H)-yl)-4-(dimethylamino)but-2-en-1-one]
EGFR WT
  IC50: > 10000 nM
[1]
  EC50: < 100 nM
